Columns and labels:
human TLR8 = molecular target: T1, human TLR8 (Homo sapiens, UniProt Q9NR97); test: TLR8 wild type NFκB-luc cellular reporter assay; format: cell-based; design: unit not given here; settings: HEK293 NFκB-luc reporter, 6 hours incubation; second part of table
T1 construct: expressed in transfected cells; host or cells: HEK293
T1 sequence (Q9NR97 27-1041): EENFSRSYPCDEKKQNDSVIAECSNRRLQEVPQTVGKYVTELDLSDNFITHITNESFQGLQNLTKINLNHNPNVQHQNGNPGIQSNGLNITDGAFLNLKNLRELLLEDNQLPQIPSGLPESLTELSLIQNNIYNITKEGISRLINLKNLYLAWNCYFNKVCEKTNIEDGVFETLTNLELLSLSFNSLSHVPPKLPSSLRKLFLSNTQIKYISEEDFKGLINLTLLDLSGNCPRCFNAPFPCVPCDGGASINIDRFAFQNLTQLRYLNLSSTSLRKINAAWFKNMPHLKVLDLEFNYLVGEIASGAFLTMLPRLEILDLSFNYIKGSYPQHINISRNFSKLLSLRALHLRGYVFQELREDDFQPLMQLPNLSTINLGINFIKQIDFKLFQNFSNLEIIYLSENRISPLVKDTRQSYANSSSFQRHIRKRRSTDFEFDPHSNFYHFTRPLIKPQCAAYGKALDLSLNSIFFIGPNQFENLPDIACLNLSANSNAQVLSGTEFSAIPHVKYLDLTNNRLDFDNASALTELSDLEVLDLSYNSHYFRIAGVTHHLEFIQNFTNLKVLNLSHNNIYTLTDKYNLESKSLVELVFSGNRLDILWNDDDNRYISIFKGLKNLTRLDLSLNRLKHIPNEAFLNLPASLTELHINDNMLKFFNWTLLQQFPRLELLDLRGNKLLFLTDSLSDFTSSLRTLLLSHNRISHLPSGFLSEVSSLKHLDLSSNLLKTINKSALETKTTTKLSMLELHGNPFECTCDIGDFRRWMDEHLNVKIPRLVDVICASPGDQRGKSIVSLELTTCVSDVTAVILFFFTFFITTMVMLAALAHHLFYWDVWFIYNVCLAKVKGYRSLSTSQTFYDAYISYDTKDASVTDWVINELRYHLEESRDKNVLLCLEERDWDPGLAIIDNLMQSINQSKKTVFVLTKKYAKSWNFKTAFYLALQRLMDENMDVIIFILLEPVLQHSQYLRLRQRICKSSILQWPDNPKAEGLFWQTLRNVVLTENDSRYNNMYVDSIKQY
Summary of the method: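 HEK293 cells transiently transfected with wild-type or second-LRR-deletion (dIRR2) TLR7/TLR8 plasmid plus NFκB-luc, 24 h; compound added for 6 h at 37 °C. Luciferase read-out, quadruplicate dose responses. LEC = lowest concentration giving effect at least two-fold above assay SD.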

human TLR7 = molecular target: T2, human TLR7 (Homo sapiens, UniProt Q9NYK1); test: TLR7 wild type NFκB-luc cellular reporter assay; format: cell-based; design: unit not given here; settings: HEK293 NFκB-luc reporter, 6 hours incubation; second part of table
T2 construct: expressed in transfected cells; host or cells: HEK293
T2 sequence (Q9NYK1 27-1049): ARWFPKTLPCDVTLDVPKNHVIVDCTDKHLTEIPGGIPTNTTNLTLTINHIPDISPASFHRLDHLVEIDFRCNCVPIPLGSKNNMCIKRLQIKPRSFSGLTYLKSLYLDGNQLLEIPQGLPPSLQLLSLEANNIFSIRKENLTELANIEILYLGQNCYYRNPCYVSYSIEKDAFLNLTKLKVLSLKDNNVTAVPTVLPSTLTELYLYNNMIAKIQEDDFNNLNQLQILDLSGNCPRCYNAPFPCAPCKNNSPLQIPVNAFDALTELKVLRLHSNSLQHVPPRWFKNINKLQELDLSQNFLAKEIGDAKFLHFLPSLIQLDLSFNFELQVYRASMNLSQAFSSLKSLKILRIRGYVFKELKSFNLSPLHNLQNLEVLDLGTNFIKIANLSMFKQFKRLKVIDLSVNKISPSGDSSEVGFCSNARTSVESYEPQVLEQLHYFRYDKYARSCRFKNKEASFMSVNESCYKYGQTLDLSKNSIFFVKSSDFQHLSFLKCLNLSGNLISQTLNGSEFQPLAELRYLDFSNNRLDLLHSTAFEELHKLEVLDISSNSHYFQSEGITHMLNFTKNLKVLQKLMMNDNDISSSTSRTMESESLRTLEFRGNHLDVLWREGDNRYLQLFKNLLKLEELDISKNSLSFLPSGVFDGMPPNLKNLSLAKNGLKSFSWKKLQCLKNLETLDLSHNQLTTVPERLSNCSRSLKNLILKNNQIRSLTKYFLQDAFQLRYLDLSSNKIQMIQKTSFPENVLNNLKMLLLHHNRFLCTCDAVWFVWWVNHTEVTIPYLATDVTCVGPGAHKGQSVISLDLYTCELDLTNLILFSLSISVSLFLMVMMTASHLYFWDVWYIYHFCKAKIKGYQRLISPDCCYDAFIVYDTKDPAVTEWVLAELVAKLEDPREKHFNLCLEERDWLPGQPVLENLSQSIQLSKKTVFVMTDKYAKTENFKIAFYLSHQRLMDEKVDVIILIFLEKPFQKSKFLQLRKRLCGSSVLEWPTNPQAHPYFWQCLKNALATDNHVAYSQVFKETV
Procedure: The ability of compounds to activate human TLR7 and/or TLR8 was assessed in a cellular reporter assay using HEK293 cells transiently transfected with a TLR7 or TLR8 expression vector and NFκB-luc reporter construct. In one instance the TLR expression construct expresses the respective wild type sequence or a mutant sequence comprising a deletion in the second leucine-rich repeat of the TLR.
Briefly, HEK293 cells were grown in culture medium (DMEM supplemented with 10% FCS and 2 mM Glutamine). For transfection of cells in 10 cm dishes, cells were detached with Trypsin-EDTA, transfected with a mix of CMV-TLR7 or TLR8 plasmid (750 ng), NFκB-luc plasmid (375 ng) and a transfection reagent and incubated 24 hours at 37° C. in a humidified 5% CO2 atmosphere. Transfected cells were then detached with Trypsin-EDTA, washed in PBS and resuspended in medium to a density of 1.67×10^5 cells/mL. Thirty microliters of cells were then dispensed into each well in 384-well plates, where 10 μL of compound in 4% DMSO was already present. […] Dose response curves were generated from measurements performed in quadruplicates. Lowest effective concentrations (LEC) values, defined as the concentration that induces an effect which is at least two fold above the standard deviation of the assay, were determined for each compound.

TLR8-wt (LEC) (human TLR8)	TLR7-wt (LEC) (human TLR7)	Structure (SMILES)
0.16	0.11	CCCC[C@@H](CCO)Nc1nc(N)nc2c(F)cccc12 [Compound 81]
1.66	5.10	CCCCNc1nc(N)nc2cc(C(=O)OC)ccc12 [Compound 17]
0.17	0.08	CCCCNc1nc(N)nc2cccc(OCCOC)c12 [Compound 11]
0.24	0.09	CCCCNc1nc(N)nc2cccc(OC(C)C)c12 [Compound 31]
0.22	0.93	CCCCNc1nc(N)nc2ccc(CO)cc12 [Compound 24]
0.25	0.16	CCCCNc1nc(N)nc2c(F)cccc12 [Compound 37]
0.26	0.47	CCCCNc1nc(N)nc2cccc(C)c12 [Compound 36]
1.83	5.64	CCCCNc1nc(N)nc2ccc(OC)cc12 [Compound 40]
0.04	0.29	CCCC[C@@H](CO)Nc1nc(N)nc2c(F)cccc12 [Compound 59]
0.03	0.67	CCC[C@@H](CO)Nc1nc(N)nc2c(F)cccc12 [Compound 47]
0.13	0.41	CCCCNc1nc(N)nc2cccc(OC)c12 [Compound 9]

More lines, now with the values behind:

Structure (SMILES)	TLR8-wt (LEC) (human TLR8)	TLR7-wt (LEC) (human TLR7)
CCCC[C@@H](CCO)Nc1nc(N)nc2cc(F)ccc12 [Compound 82]	0.03	0.04
CCC[C@@H](CO)Nc1nc(N)nc2cc(C)ccc12 [Compound 44]	0.03	0.43
CCC[C@@H](CO)Nc1nc(N)nc2cccc(F)c12 [Compound 50]	0.00	0.32
CCC[C@@H](CO)Nc1nc(N)nc2ccc(CO)cc12 [Compound 34]	0.27	10.77
CCCC[C@@H](CCO)Nc1nc(N)nc2cc(C)ccc12 [Compound 73]	0.06	0.03
CCC[C@@H](CO)Nc1nc(N)nc2cc(OC)ccc12 [Compound 56]	0.04	0.39
CCC[C@@H](CO)Nc1nc(N)nc2cccc(OC)c12 [Compound 58]	0.03	0.18
CCC[C@@H](CO)Nc1nc(N)nc2cccc(C)c12 [Compound 46]	0.04	0.77
CCCC[C@@H](CO)Nc1nc(N)nc2cc(OC)ccc12 [Compound 76]	0.04	0.26
CCCC[C@@H](CO)Nc1nc(N)nc2cc(F)ccc12 [Compound 60]	0.01	0.23
CCC[C@@H](CCO)Nc1nc(N)nc2ccc(C(C)C)cc12 [Compound 26]	1.97	3.60
CCC[C@@H](CO)Nc1nc(N)nc2ccc(OC)cc12 [Compound 57]	0.53	10.77
CCC[C@@H](CO)Nc1nc(N)nc2cccc(Cl)c12 [Compound 71]	0.01	1.02
CCC[C@@H](CCO)Nc1nc(N)nc2ccc(CC)cc12 [Compound 25]	0.45	0.57
CCC[C@@H](CO)Nc1nc(N)nc2cc(C(=O)OC)ccc12 [Compound 86]	0.22	2.01
CCC[C@@H](CCO)Nc1nc(N)nc2ccc(OC)cc12 [Compound 79]	2.97	11.87
CCCCNc1nc(N)nc2ccc(-n3cnc(C)c3)cc12 [Compound 21]	2.55	>25
CCC[C@@H](CCO)Nc1nc(N)nc2ccc(C)cc12 [Compound 54]	0.43	0.54
CCCC[C@@H](CO)Nc1nc(N)nc2ccc(C)cc12 [Compound 51]	0.04	0.60
CCC[C@@H](CCO)Nc1nc(N)nc2cc(OC)ccc12 [Compound 78]	0.13	0.20
CCCC[C@@H](CO)Nc1nc(N)nc2cccc(C)c12 [Compound 52]	0.03	0.41
CCCCNc1nc(N)nc2cc(Cl)c3c(c12)OCCO3 [Compound 28]	0.88	2.06
CCCCNc1nc(N)nc2cccc(CCc3ccccc3)c12 [Compound 32]	0.47	0.13
CCC[C@@H](CO)Nc1nc(N)nc2ccc(C)cc12 [Compound 45]	0.03	0.41
CCC[C@@H](CO)Nc1nc(N)nc2cc(CO)ccc12 [Compound 33]	0.15	1.88
